Values quoted from earlier work, collected in patent US20050288338A1, “Amido compounds and their use as pharmaceuticals” (priority 2004, published 2005).

Biological target: T1, 11βHSD1 in the eye (Homo sapiens, UniProt P28845)
T1 construct: host or cells: eye of healthy human volunteers (in vivo)
Details: healthy volunteers, after seven days of carbenoxolone treatment

T1 sequence (P28845 whole entry): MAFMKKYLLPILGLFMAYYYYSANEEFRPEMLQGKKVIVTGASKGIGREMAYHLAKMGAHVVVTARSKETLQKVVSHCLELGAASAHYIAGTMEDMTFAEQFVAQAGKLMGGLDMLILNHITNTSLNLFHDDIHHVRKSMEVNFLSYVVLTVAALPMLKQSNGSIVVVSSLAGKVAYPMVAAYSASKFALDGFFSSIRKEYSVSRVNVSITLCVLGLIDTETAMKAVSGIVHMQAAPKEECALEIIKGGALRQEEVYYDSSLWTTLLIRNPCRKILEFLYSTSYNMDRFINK

Structure (SMILES): CC1(C)[C@@H](OC(=O)CCC(=O)O)CC[C@]2(C)[C@H]3C(=O)C=C4[C@@H]5C[C@@](C)(C(=O)O)CC[C@]5(C)CC[C@@]4(C)[C@]3(C)CC[C@@H]12 [carbenoxolone]
- IOP was reduced by: 18%
